Test results published in patent publication US20260062382A1, “CRYSTALLINE FORMS OF TROFINETIDE” (ACADIA Pharmaceuticals Inc., priority 2021, published 2026).
Where a SMILES comes first, the peptide text is derived from it. [ ]: non-standard residue; d: D form. αMeP = C[C@@]1(C(=O)O)CCCN1

Experiments:
Format in all cases: physicochemical
[1] = Long-term (6 month) chemical stability, total impurities by HPLC; details: for Total Impurities: 25 ± 2° C./60 ± 5% RH
Protocol: The long-term (6 month) chemical stability of Form A and amorphous trofinetide were tested under the same conditions: 25±2° C./60±5% relative humidity (RH). […] [table]

[2] = Dynamic vapor sorption-desorption (DVS) analysis
Protocol: DVS analysis was carried out TA Instruments Q5000 Dynamic Vapor Sorption analyzer. The instrument was calibrated with standard weights and a sodium bromide standard for humidity. Samples were analyzed at 25° C. with a maximum equilibration time of 60 minutes in 10% relative humidity (RH) steps from 5 to 95% RH (adsorption cycle) and from 95 to 5% RH (desorption cycle). Form A is non-hygroscopic.

[3] = Stability under humidity conditions (two days exposure, XRPD / water content)

Compound | Total Impurities ([1]; 1 month) [%] | Total Impurities ([1]; 3 months) [%] | Total Impurities ([1]; 6 months) | Total Impurities ([1]; Initial) | Long-term chemical stability compared with amorphous trofinetide ([1]; 6 month, 25±2° C./60±5% RH) | Hygroscopicity ([2]; 25° C.) | Solid form after DVS by XRPD ([2]; after DVS) | Moisture uptake (adsorption cycle) ([2]; exposed from 5% RH to 95% RH) | Moisture loss (desorption cycle) ([2]; exposed from 95% RH to 5% RH) | Stability under humidity conditions ([3]; large range of humidity conditions) | Solid form change under extreme dry conditions (XRPD) ([3]; open container exposed under 0% RH for two days)
C[C@@]1(C(=O)N[C@@H](CCC(=O)O)C(=O)O)CCCN1C(=O)CN [amorphous trofinetide (Batch 1), glycyl-L-2-methylprolyl-L-glutamic acid] (H-Gly-[αMeP]-Glu-OH) | 0.3 | 0.8 | 1.0% | 0.3% | – | – | – | – | – | – | –
C[C@@]1(C(=O)N[C@@H](CCC(=O)O)C(=O)O)CCCN1C(=O)CN [amorphous trofinetide (Batch 3), glycyl-L-2-methylprolyl-L-glutamic acid] (H-Gly-[αMeP]-Glu-OH) | 0.2 | 0.6 | 0.8% | 0.2% | – | – | – | – | – | – | –
C[C@@]1(C(=O)N[C@@H](CCC(=O)O)C(=O)O)CCCN1C(=O)CN [Form A, (2S)-2-[[(2S)-1-(2-aminoacetyl)-2-methylpyrrolidine-2-carbonyl]amino]pentanedioic acid] (H-Gly-[αMeP]-Glu-OH) | 0.0 | 0.03 | <PLOQ | <PLOQ | more stable than amorphous trofinetide | non-hygroscopic | remained as trofinetide Form A | little moisture uptake | little moisture loss | stable under a large range of humidity conditions | lost the water and became disordered
C[C@@]1(C(=O)N[C@@H](CCC(=O)O)C(=O)O)CCCN1C(=O)CN [amorphous trofinetide (Batch 2), glycyl-L-2-methylprolyl-L-glutamic acid] (H-Gly-[αMeP]-Glu-OH) | – | 0.6 | 0.9% | 0.2% | – | – | – | – | – | – | –
